Measurements taken from patent publication US8574590B2 (Integral Molecular, Inc., priority 2003, dated 2013).
Like-named read-outs stand apart in the source and are kept apart here.

What was measured:
[1] = depending on the ionic composition of the membrane; cited from earlier work
[2] = read-out: Kd for Ca^++; cited from earlier work
[3] = system: Gag/luciferase-lipoparticles; assay: Melittin poration of Gag/luciferase-lipoparticles (luciferase luminescence); format: biochemical; details: melittin 0.3 to 105 uM, 30 minutes
Procedure: FIG. 24. […] Lipoparticles were constructed to contain a luciferase enzyme inside the lipoparticle. […] To insure the integrity of the luciferase, after each addition of melittin, the same sample was lysed with Triton X-100 (circles) and again measured.
Lipoparticles containing a Gag-luciferase fusion protein were prepared as described herein. Melittin, ranging from 0.3 to 105 uM in final concentration, was added to solutions of Gag/luciferase-lipoparticles (MOPS pH 6.5 buffer), mixed, and incubated for 30 minutes. A 5 μl aliquot of the Lipoparticle solution was then transferred to a 96-well plate containing 50 μl of Luciferase assay reagent (Promega Steady Glo Luciferase Assay System) which contains the necessary reagents for enzymatic activity, including luciferin, ATP, and Mg^2+. Luminescence was measured for 1 second integrations in a Wallac Victor2V. […] Triton X-100 was used to lyse luciferase-lipoparticles as a positive control.

[4] = target: Kv1.3 (Homo sapiens, UniProt P22001); details: cited from earlier work
[5] = target: Shaker (Drosophila melanogaster, UniProt P08510); details: cited from earlier work
[6] = system: K-channels; details: cited from earlier work
[7] = system: Ca-activated K-channels; details: cited from earlier work

Chain of Shaker (P08510 whole entry): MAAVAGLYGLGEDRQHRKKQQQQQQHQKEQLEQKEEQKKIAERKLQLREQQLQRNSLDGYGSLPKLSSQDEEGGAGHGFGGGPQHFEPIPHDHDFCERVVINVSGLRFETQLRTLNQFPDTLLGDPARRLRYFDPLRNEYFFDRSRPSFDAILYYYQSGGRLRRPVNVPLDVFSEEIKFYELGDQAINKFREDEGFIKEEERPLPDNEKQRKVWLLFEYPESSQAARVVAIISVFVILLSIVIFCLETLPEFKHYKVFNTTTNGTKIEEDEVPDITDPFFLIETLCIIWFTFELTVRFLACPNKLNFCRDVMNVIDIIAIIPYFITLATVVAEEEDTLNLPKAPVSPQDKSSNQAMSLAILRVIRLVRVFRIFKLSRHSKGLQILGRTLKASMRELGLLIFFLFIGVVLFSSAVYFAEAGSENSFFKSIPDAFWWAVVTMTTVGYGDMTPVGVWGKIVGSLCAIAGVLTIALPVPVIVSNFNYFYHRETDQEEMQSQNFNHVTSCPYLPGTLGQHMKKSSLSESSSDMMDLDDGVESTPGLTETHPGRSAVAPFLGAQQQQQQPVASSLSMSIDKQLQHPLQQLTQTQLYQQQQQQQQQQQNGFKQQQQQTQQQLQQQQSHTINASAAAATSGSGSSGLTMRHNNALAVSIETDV
Chain of Kv1.3 (P22001 whole entry): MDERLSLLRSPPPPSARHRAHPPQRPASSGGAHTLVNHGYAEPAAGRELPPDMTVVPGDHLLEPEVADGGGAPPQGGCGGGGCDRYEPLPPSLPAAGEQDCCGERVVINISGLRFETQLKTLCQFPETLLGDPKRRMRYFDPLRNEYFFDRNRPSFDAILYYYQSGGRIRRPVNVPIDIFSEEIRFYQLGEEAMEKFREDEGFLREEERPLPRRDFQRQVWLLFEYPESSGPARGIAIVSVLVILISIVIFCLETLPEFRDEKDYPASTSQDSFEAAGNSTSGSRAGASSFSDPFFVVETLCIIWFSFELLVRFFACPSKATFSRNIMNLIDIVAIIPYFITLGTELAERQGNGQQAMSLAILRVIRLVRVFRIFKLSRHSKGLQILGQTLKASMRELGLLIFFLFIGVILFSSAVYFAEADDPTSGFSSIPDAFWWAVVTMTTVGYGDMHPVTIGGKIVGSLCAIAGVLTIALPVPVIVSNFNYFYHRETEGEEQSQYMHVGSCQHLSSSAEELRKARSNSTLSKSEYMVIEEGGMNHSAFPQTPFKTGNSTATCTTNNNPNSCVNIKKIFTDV

CCCCCCCCCCCCCCCCCc1cc(=O)oc2cc(O)ccc12 [4-heptadecyl-7-hydroxycoumarin]
pKa range [1]: 6.35-11.15

Cc1ccc(N(CC(=O)O)CC(=O)O)c(OCCOc2cc3cc(-c4ncc(C(=O)O)o4)oc3cc2N(CC(=O)O)CC(=O)O)c1 [Fura-2]
Kd [2]: 140 nM

CC[C@H](C)[C@H](NC(=O)CN)C(=O)NCC(=O)N[C@@H](C)C(=O)N[C@H](C(=O)N[C@@H](CC(C)C)C(=O)N[C@@H](CCCCN)C(=O)N[C@H](C(=O)N[C@@H](CC(C)C)C(=O)N[C@H](C(=O)N[C@H](C(=O)NCC(=O)N[C@@H](CC(C)C)C(=O)N1CCC[C@H]1C(=O)N[C@@H](C)C(=O)N[C@@H](CC(C)C)C(=O)N[C@H](C(=O)N[C@@H](CO)C(=O)N[C@@H](Cc1c[nH]c2ccccc12)C(=O)N[C@H](C(=O)N[C@@H](CCCCN)C(=O)N[C@@H](CCCNC(=N)N)C(=O)N[C@@H](CCCCN)C(=O)N[C@@H](CCCNC(=N)N)C(=O)N[C@@H](CCC(N)=O)C(=O)N[C@@H](CCC(N)=O)C(N)=O)[C@@H](C)CC)[C@@H](C)CC)[C@@H](C)O)[C@@H](C)O)C(C)C)C(C)C [Melittin]
permeabilization of lipoparticles (luciferase signal) [3]: increase of the luminescent signal | permeabilization of lipoparticles (luciferase signal) ([3]; listed as melittin): the lipoparticles were permeabilized

Agitoxin-2: toxin, inhibitor of K-channels
Blocking of Kv1.3 [4]: Blocks Kv1.3 and Shaker | Blocking of Shaker [5]: Blocks Kv1.3 and Shaker

Alpha-Dendrotoxin
Blocking of Kv1.3 [4]: Blocks Kv1.3 and Shaker | Blocking of Shaker [5]: Blocks Kv1.3 and Shaker | binding under high ionic strength conditions ([6]; high ionic strength): Binds very weakly under high ionic strength | binding under low ionic strength conditions ([6]; low ionic strength): Binds strongly under low ionic strength conditions

Charybdotoxin
Blocking of Kv1.3 [4]: Blocks Kv1.3 and Shaker | Blocking of Kv1.3 ([4]; listed as CHTX): highly specific, potent, and impermeant blocker | Blocking of Shaker [5]: Blocks Kv1.3 and Shaker | Blocking of Shaker ([5]; listed as CHTX): highly specific, potent, and impermeant blocker | effect of Ca on binding [6]: Ca inhibits binding | binding at low ionic strength, high pH (8.5) ([6]; low ionic strength, high pH (8.5)): Low ionic strength, high pH (8.5) enhances binding

Iberiotoxin: toxin, inhibitor of K-channels (QFTDVDCSVSKECWSVCKDLFGVDRGKCMGKKCRCYQ; UniProt P24663 1-37, looked up)
Blocking of Kv1.3 [4]: not Kv1.3 | Blocking of Shaker [5]: not | Blocking of Ca-activated K-channels [7]: Blocks

Margatoxin
Blocking of Kv1.3 [4]: Blocks | Blocking of Shaker [5]: not Shaker
